Assay results reported in publication PMC12527034, “R103 and R115 Affinity Mutants of ATeam ATP Biosensors” (Sensors (Basel, Switzerland), 2025).

Assays:
HEK293 cells = test: Live-cell imaging of metabolic inhibition (sensitized FRET emission ratio); format: cell-based
Protocol: Microscopy. HEK293 cells were cultured in low-glucose Dulbecco’s modified Eagle’s medium supplemented with 10% cosmic calf serum (Gibco, Thermo Fisher Scientific, Waltham, MA, USA). For imaging studies, cells were plated on 18 mm #1.5 coverslips and transfected with Effectene (Qiagen, Germantown, MD, USA) or by the calcium phosphate method. Prior to imaging, cells were equilibrated for at least 20 min at room temperature in imaging solution (15 mM HEPES, pH 7.3, 1.25 mM NaH2PO4, 130 mM NaCl, 3 mM KCl, 2 mM CaCl2, 1 mM MgCl2, 3 mM NaHCO3) supplemented with a glucose concentration dependent on the specific experiment. Live-cell microscopy was carried out at room temperature on an Olympus IX83 inverted fluorescence microscope with a 20X/0.75 NA air objective illuminated by a Lumencor SpectraX light engine and imaged with an Andor Zyla 4.2 sCMOS camera. An ECFP/EYFP/mCherry multiband beamsplitter (Chroma 69008bs) was used with bandpass excitation and emission filters for each channel: cyan 438/29 nm and 470/24 nm; yellow 510/10 nm and 540/30 nm; sensitized FRET 438/29 nm and 540/30 nm; red 575/25 nm and 631/28 nm. Andor iQ3 software was used for image acquisition, and ImageJ/FIJI was used for image analysis. […] Cell masks were created using a threshold of two times the background and applied to background-subtracted images. […]

ATeam3.10 R103E [1] = target: T1, ATeam3.10 R103E (Bacillus sp. PS3, UniProt A0A0M5MQR7, R103E); test: Steady-state FRET ratio ADP dose response of 0.125 uM purified ATeam3.10 sensor at room temperature in 50 mM MOPS-KOH pH 7.3, 50 mM KCl, 0.5 mM MgCl2, 0.05% Triton-X100 (4 to 9 replicates).; format: binding; details: n = 4
T1 construct: gene uncC; epsilon subunit flanked by mseCFP and mVenus; polyhistidine-tagged
T1 sequence (A0A0M5MQR7 entry or part of it R103E): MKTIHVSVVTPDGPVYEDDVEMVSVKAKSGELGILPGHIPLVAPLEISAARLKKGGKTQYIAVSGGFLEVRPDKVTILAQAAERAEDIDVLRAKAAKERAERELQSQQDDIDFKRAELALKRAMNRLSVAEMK
Protocol: (§1) Protein Characterization. […] Samples were measured with n = 4 to 9 replicates.
(§2) Apparent dissociation constants are summarized in (E).

ATeam3.10 R115A [2] = target: T2, ATeam3.10 R115A (Bacillus sp. PS3, UniProt A0A0M5MQR7, R115A); test: as above; format: binding; details: n = 4
T2 construct: gene uncC; epsilon subunit flanked by mseCFP and mVenus; polyhistidine-tagged
T2 sequence (A0A0M5MQR7 entry or part of it R115A): as the sequence (A0A0M5MQR7 entry or part of it R103E) above, with E103R, R115A counted along it
Protocol: as §1, §2

ATeam3.10 R103E/R115A [3] = target: T3, ATeam3.10 R103E/R115A (Bacillus sp. PS3, UniProt A0A0M5MQR7, R103E/R115A); test: as above; format: binding; details: n = 4
T3 construct: gene uncC; epsilon subunit flanked by mseCFP and mVenus; polyhistidine-tagged
T3 sequence (A0A0M5MQR7 entry or part of it R103E/R115A): as the sequence (A0A0M5MQR7 entry or part of it R103E) above, with R115A counted along it
Protocol: as §1, §2

ATeam3.10 R115E [4] = target: T4, ATeam3.10 R115E (Bacillus sp. PS3, UniProt A0A0M5MQR7, R115E); test: as above; format: binding; details: n = 4
T4 construct: gene uncC; epsilon subunit flanked by mseCFP and mVenus; polyhistidine-tagged
T4 sequence (A0A0M5MQR7 entry or part of it R115E): as the sequence (A0A0M5MQR7 entry or part of it R103E) above, with E103R, R115E counted along it
Protocol: as §1, §2

ATeam3.10 R103A/R115A [5] = target: T5, ATeam3.10 R103A/R115A (Bacillus sp. PS3, UniProt A0A0M5MQR7, R103A/R115A); test: as above; format: binding; details: n = 4
T5 construct: gene uncC; epsilon subunit flanked by mseCFP and mVenus; polyhistidine-tagged
T5 sequence (A0A0M5MQR7 entry or part of it R103A/R115A): as the sequence (A0A0M5MQR7 entry or part of it R103E) above, with E103A, R115A counted along it
Protocol: as §1, §2

ATeam3.10 (WT) [6] = target: T6, ATeam3.10 (WT) (Bacillus sp. PS3, UniProt A0A0M5MQR7); test: as above; format: binding; details: n = 4; read-out: ADP Affinity Kapp
T6 construct: gene uncC; epsilon subunit flanked by mseCFP and mVenus; polyhistidine-tagged, expressed in E. coli BL21(DE3)
T6 sequence (A0A0M5MQR7 1-133): as the sequence (A0A0M5MQR7 entry or part of it R103E) above, with E103R counted along it
Protocol: as §1, §2

ATeam3.10 R103A [7] = target: T7, ATeam3.10 R103A (Bacillus sp. PS3, UniProt A0A0M5MQR7, R103A); test: as above; format: binding; details: n = 4
T7 construct: gene uncC; epsilon subunit flanked by mseCFP and mVenus; polyhistidine-tagged
T7 sequence (A0A0M5MQR7 entry or part of it R103A): as the sequence (A0A0M5MQR7 entry or part of it R103E) above, with E103A counted along it
Protocol: as §1, §2

ATeam3.10 R103A/R115E [8] = target: T8, ATeam3.10 R103A/R115E (Bacillus sp. PS3, UniProt A0A0M5MQR7, R103A/R115E); test: as above; format: binding; details: n = 4
T8 construct: gene uncC; epsilon subunit flanked by mseCFP and mVenus; polyhistidine-tagged
T8 sequence (A0A0M5MQR7 entry or part of it R103A/R115E): as the sequence (A0A0M5MQR7 entry or part of it R103E) above, with E103A, R115E counted along it
Protocol: as §1, §2

ATeam3.10 R103E/R115E [9] = target: T9, ATeam3.10 R103E/R115E (Bacillus sp. PS3, UniProt A0A0M5MQR7, R103E/R115E); test: biochemical; parameters: gene uncC; details: n = 4
T9 sequence (A0A0M5MQR7 entry or part of it R103E/R115E): as the sequence (A0A0M5MQR7 entry or part of it R103E) above, with R115E counted along it
Protocol: Assays were carried out at room temperature with 0.125 µM protein in assay buffer (50 mM MOPS-KOH, pH 7.3, 50 mM KCl, 0.5 mM MgCl2, 0.05% Triton-X100). ATP stocks were neutralized to pH 7, and a total MgCl2 concentration was added to maintain 0.5 mM free Mg^2+ [21]. Samples were prepared in clear-bottom, black 96-well plates (Greiner Bio-One, Monroe, NC, USA). Sensor protein and ATP at a concentration dictated by each point on the dose–response curve were added to a single well with assay buffer and allowed to equilibrate. Samples were measured with n = 4 to 9 replicates. Steady-state fluorescence was measured on a BioTek Synergy H4 using 420/50 nm excitation and 485/20 nm or 528/20 nm emission bandpass filters (BioTek, Winooski, VT, USA). Donor fluorescence lifetimes were measured using an Edinburgh Instruments FS5+ time-resolved fluorometer with an NKT-Fianium WhiteLaseMicro supercontinuum pulsed laser (Edinburgh Instruments, Livingston, UK). Donor fluorescence lifetime distribution analysis was carried out using the MemExp software [22, 23, 24].
ADP dose responses were measured using purified protein in solution. FRET ratios were calculated as sensitized acceptor emission-to-donor emission ratios. […] ADP dose response curves for (C) single and (D) double mutants.

ATeam1.03YEMK R115E = target: T10, ATeam1.03YEMK R115E (Bacillus subtilis, UniProt P37812, G131E/INS132K/K132M/M60Y/R115E); test: Steady-state FRET ratio ATP dose response of 0.125 uM purified ATeam1.03 or ATeam1.03YEMK sensor at room temperature in 50 mM MOPS-KOH pH 7.3, 50 mM KCl, 0.5 mM free Mg2+, 0.05% Triton-X100 (4 to 9 replicates).; format: binding; details: SD, n = 4; read-out: ATP Affinity Kapp (ATeam1.03 and ATeam1.03YEMK)
T10 construct: gene atpC; YEMK epsilon subunit flanked by mseCFP and mVenus; polyhistidine-tagged
T10 sequence (P37812 whole entry, stated change not applied): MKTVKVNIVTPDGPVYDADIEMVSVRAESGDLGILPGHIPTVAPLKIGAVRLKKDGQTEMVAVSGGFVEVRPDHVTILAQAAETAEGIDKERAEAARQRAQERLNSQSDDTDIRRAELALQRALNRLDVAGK
Protocol: as §1
(§3) Figure 4 All ATeam1.03 R103 and R115 single and double mutants cause loss of ATP affinity. ATP dose responses were measured using purified protein in solution. […] (A) Example fluorescence emission spectra for (A) wildtype ATeam1.03 and (B) the non-binding R103A/R115A double mutant.
(§4) Figure 5 ATeam1.03YEMK R103 and R115 single and double mutants tune ATP affinity. ATP dose responses were measured using purified protein in solution. […] (A) Example fluorescence emission spectra for (A) wildtype ATeam1.03YEMK, (B) the R103A/R115A double mutant, and (C) the R103A/R115E double mutant. ATP dose response curves for (D) single and (E) double mutants. Apparent dissociation constants are summarized in (F).

ATeam1.03YEMK (WT) = target: T11, ATeam1.03YEMK (WT) (Bacillus subtilis, UniProt P37812, G131E/INS132K/K132M/M60Y); test: as above; format: binding; details: SD, n = 4; read-out: ATP Affinity Kapp (ATeam1.03 and ATeam1.03YEMK)
T11 construct: gene atpC; epsilon subunit with four interface residues exchanged to match Bacillus sp; PS3, flanked by mseCFP and mVenus; polyhistidine-tagged
T11 sequence (P37812 whole entry, stated change not applied): as above
Protocol: as §1, §3, §4

[10] = target: T12, ATeam1.03YEMK R103A/R115E; test: as above; format: binding; details: SD, n = 4; read-out: ATP Affinity Kapp (ATeam1.03 and ATeam1.03YEMK)
T12 construct: YEMK epsilon subunit flanked by mseCFP and mVenus; polyhistidine-tagged
Protocol: as §1, §3, §4

ATeam1.03YEMK R115A = target: T13, ATeam1.03YEMK R115A (Bacillus subtilis, UniProt P37812, G131E/INS132K/K132M/M60Y/R115A); test: as above; format: binding; details: SD, n = 4; read-out: ATP Affinity Kapp (ATeam1.03 and ATeam1.03YEMK)
T13 construct: gene atpC; YEMK epsilon subunit flanked by mseCFP and mVenus; polyhistidine-tagged
T13 sequence (P37812 whole entry, stated change not applied): as above
Protocol: as §1, §3, §4

[11] = target: T14, ATeam1.03YEMK R103E/R115E; test: as above; format: binding; details: SD, n = 4; read-out: ATP Affinity Kapp (ATeam1.03 and ATeam1.03YEMK)
T14 construct: YEMK epsilon subunit flanked by mseCFP and mVenus; polyhistidine-tagged
Protocol: as §1, §3, §4

ATeam1.03 (WT) = target: T15, ATeam1.03 (WT) (Bacillus subtilis, UniProt P37812); test: as above; format: binding; details: SD, n = 4; read-out: ATP Affinity Kapp (ATeam1.03 and ATeam1.03YEMK)
T15 construct: gene atpC; epsilon subunit flanked by mseCFP and mVenus; polyhistidine-tagged, expressed in E. coli BL21(DE3)
T15 sequence (P37812 whole entry): as the sequence (P37812 whole entry, stated change not applied) above
Protocol: as §1, §3, §4

[12] = target: T16, ATeam1.03YEMK R103E/R115A; test: as above; format: binding; details: SD, n = 4; read-out: ATP Affinity Kapp (ATeam1.03 and ATeam1.03YEMK)
T16 construct: YEMK epsilon subunit flanked by mseCFP and mVenus; polyhistidine-tagged
Protocol: as §1, §3, §4

ATeam3.10 R103E [13] = target: T1, ATeam3.10 R103E; test: Steady-state FRET ratio ATP dose response of 0.125 uM purified ATeam3.10 sensor at room temperature in 50 mM MOPS-KOH pH 7.3, 50 mM KCl, 0.5 mM free Mg2+, 0.05% Triton-X100 (4 to 9 replicates).; format: binding; details: SD, n = 4; read-out: ATP Affinity Kapp
Protocol: as §1
(§5) We measured the ATP dose–response curves for all combinations of single and double mutants consisting of R-to-A charge neutralization or R-to-E charge reversal (Table 1, Figure 2). […] The difference between our observations likely reflects the sensitivity of the ε subunit to the label used. Kato-Yamada used a relatively small Cy3 label with a cysteine mutant (Q107C) of the ε subunit, whereas the ε subunit is fused to two large fluorescent proteins in ATeam3.10. Despite this difference, the increase in affinity could still be of particular use for developing an ATeam-based sensor to detect the low levels of extracellular ATP [2, 3, 11, 13, 25].
(§6) Figure 2 ATeam3.10 R103 and R115 single and double mutants tune ATP affinity. ATP dose responses were measured using purified protein in solution. […] Apparent dissociation constants are summarized in (E).

ATeam3.10 R115A [14] = target: T2, ATeam3.10 R115A; test: as above; format: binding; details: SD, n = 4; read-out: ATP Affinity Kapp
Protocol: as §1, §5, §6

ATeam3.10 R103E/R115A [15] = target: T3, ATeam3.10 R103E/R115A; test: as above; format: binding; details: SD, n = 4; read-out: ATP Affinity Kapp
Protocol: as §1, §5, §6

ATeam3.10 R115E [16] = target: T4, ATeam3.10 R115E; test: as above; format: binding; details: SD, n = 4; read-out: ATP Affinity Kapp
Protocol: as §1, §5, §6

ATeam3.10 R103A/R115A [17] = target: T5, ATeam3.10 R103A/R115A; test: as above; format: binding; details: SD, n = 4; read-out: ATP Affinity Kapp
Protocol: as §1, §5, §6

ATeam3.10 (WT) [18] = target: T6, ATeam3.10 (WT); test: as above; format: binding; details: SD, n = 4; read-out: ATP Affinity Kapp
Protocol: as §1, §5, §6

ATeam3.10 R103A [19] = target: T7, ATeam3.10 R103A; test: as above; format: binding; details: SD, n = 4; read-out: ATP Affinity Kapp
Protocol: as §1, §5, §6

ATeam3.10 R103A/R115E [20] = target: T8, ATeam3.10 R103A/R115E; test: as above; format: binding; details: SD, n = 4; read-out: ATP Affinity Kapp
Protocol: as §1, §5, §6

ATeam3.10 R103E/R115E [21] = target: T9, ATeam3.10 R103E/R115E; test: as above; format: binding; parameters: gene uncC; epsilon subunit flanked by mseCFP and mVenus; polyhistidine-tagged; details: SD, n = 4; read-out: ATP Affinity Kapp
Protocol: as §1, §5, §6

How did the “effect on cytosolic ATP” value (HEK293 cells; HEK293, 10 mM glucose) turn out when `O=CC[C@@H](O)[C@H](O)[C@H](O)CO` [DG, 2-deoxyglucose] was run?
The value was “did not cause a drastic loss of ATP”.

What about the “effect on cytosolic ATP” value (HEK293 cells; HEK293, absence of glucose) of the same molecule?
The value was “did cause ATP depletion”.

`Nc1ncnc2c1ncn2[C@@H]1O[C@H](COP(=O)(O)OP(=O)(O)O)[C@@H](O)[C@H]1O` [ADP, Adenosine diphosphate] was tested. Which Kd (ATeam3.10 R103E [1]) did it give?
The Kd was 68 ± 3 µM.

What about the Kd (ATeam3.10 R115A [2]) of the same molecule?
The Kd was 74 ± 7 µM.

What about the Kd (ATeam3.10 R103E/R115A [3]) of the same molecule?
The Kd was 40 ± 2 µM.

What about the Kd (ATeam3.10 R115E [4]) of the same molecule?
Its Kd is 29 ± 2 µM.

And the Kd (ATeam3.10 R103A/R115A [5])?
Its Kd is 32 ± 5 µM.

What about the Kd (ATeam3.10 (WT) [6]) of the same molecule?
Its Kd is 130 ± 10 µM.

What about the Kd (ATeam3.10 R103A [7]) of the same molecule?
The Kd was 82 ± 6 µM.

And the Kd (ATeam3.10 R103A/R115E [8])?
Its Kd is 17 ± 1 µM.

And the Kd (ATeam3.10 R103E/R115E [9])?
Its Kd is 51 ± 6 µM.

Which results are given for `Nc1ncnc2c1ncn2[C@@H]1O[C@H](COP(=O)(O)OP(=O)(O)OP(=O)(O)O)[C@@H](O)[C@H]1O` [ATP, Adenosine triphosphate]?
Kd (ATeam1.03YEMK R115E): 700 µM; Kd (ATeam1.03YEMK (WT)): 200 µM; Kd [10]: 1900 µM; Kd (ATeam1.03YEMK R115A): 1800 µM; Kd [11]: 2200 µM; Kd (ATeam1.03 (WT)): 1000 µM; Kd [12]: 1900 µM; Kd (ATeam3.10 R103E [13]): 0.6 µM; Kd (ATeam3.10 R115A [14]): 0.6 µM; Kd (ATeam3.10 R103E/R115A [15]): 0.7 µM; Kd (ATeam3.10 R115E [16]): 0.3 µM; Kd (ATeam3.10 R103A/R115A [17]): 0.2 µM; Kd (ATeam3.10 (WT) [18]): 0.8 µM; Kd (ATeam3.10 R103A [19]): 0.8 µM; Kd (ATeam3.10 R103A/R115E [20]): 0.2 µM; Kd (ATeam3.10 R103E/R115E [21]): 0.8 µM
